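Dose response: 5 concentrations. Exposure: 48 h. Format: 96-well plates. Endpoint: linear interpolation; highest concentration if not reached. GI50: concentration for 50% inhibition of growth.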 Activity calls are given as the source filed them. No stated cut-off is given here; in the data, active = GI50 up to about 1.1 µM and inactive = higher.
Legend:
Test in all cases: NCI tumour cell line growth inhibition, 48 h
[1] = system: SK-OV-3
[2] = system: T47D
[3] = system: U-251
[4] = system: 786-0
[5] = system: A549
[6] = system: UACC-257
[7] = system: HCC 2998
[8] = system: KM12
[9] = system: SF-539
[10] = system: PC-3
[11] = system: SN12C
[12] = system: ACHN
[13] = system: NCI-H522
[14] = system: CAKI-1
[15] = system: RXF 393
[16] = system: LOX IMVI
[17] = system: EKVX
[18] = system: SNB-75
[19] = system: OVCAR-3
[20] = system: SK-MEL-28
[21] = system: NCI/ADR-RES
[22] = system: OVCAR-4
[23] = system: MOLT-4
[24] = system: MDA-MB-231
[25] = system: HT-29
[26] = system: Malme-3M
[27] = system: DU-145
[28] = system: MCF7
[29] = system: NCI-H23
[30] = system: NCI-H226
[31] = system: MDA-MB-435
[32] = system: SW-620
[33] = system: A498
[34] = system: SR
[35] = system: M14
[36] = system: IGROV-1
[37] = system: COLO 205
[38] = system: UACC-62
[39] = system: NCI-H460
[40] = system: K562
[41] = system: SK-MEL-5
[42] = system: SF-268
[43] = system: UO-31
[44] = system: OVCAR-5
[45] = system: SNB-19
[46] = system: CCRF-CEM
[47] = system: SK-MEL-2
[48] = system: HCT-15
[49] = system: HCT-116
[50] = system: MDA-N
[51] = system: SF-295
[52] = system: OVCAR-8
[53] = system: HOP-62
[54] = system: TK-10
[55] = system: HOP-92
[56] = system: Hs-578T

O=C1/C(=N/c2ccccc2)Oc2cc(O)ccc21
GI50 [1]: > 100 µM (inactive) | GI50 [2]: > 100 µM (inactive) | GI50 [3]: > 100 µM (inactive) | GI50 [4]: > 100 µM (inactive) | GI50 [5]: > 100 µM (inactive) | GI50 [6]: > 100 µM (inactive) | GI50 [7]: > 100 µM (inactive) | GI50 [8]: > 100 µM (inactive) | GI50 [9]: > 100 µM (inactive) | GI50 [10]: > 100 µM (inactive) | GI50 [11]: > 100 µM (inactive) | GI50 [12]: > 100 µM (inactive) | GI50 [13]: > 100 µM (inactive) | GI50 [14]: > 100 µM (inactive) | GI50 [15]: > 100 µM (inactive) | GI50 [16]: > 100 µM (inactive) | GI50 [17]: > 100 µM (inactive) | GI50 [18]: > 100 µM (inactive) | GI50 [19]: > 100 µM (inactive) | GI50 [20]: > 100 µM (inactive) | GI50 [21]: > 100 µM (inactive) | GI50 [22]: > 100 µM (inactive) | GI50 [23]: > 100 µM (inactive) | GI50 [24]: > 100 µM (inactive) | GI50 [25]: > 100 µM (inactive) | GI50 [26]: > 100 µM (inactive) | GI50 [27]: > 100 µM (inactive) | GI50 [28]: 56.4 µM (inactive) | GI50 [29]: > 100 µM (inactive) | GI50 [30]: > 100 µM (inactive) | GI50 [31]: > 100 µM (inactive) | GI50 [32]: > 100 µM (inactive) | GI50 [33]: > 100 µM (inactive) | GI50 [34]: > 100 µM (inactive) | GI50 [35]: > 100 µM (inactive) | GI50 [36]: > 100 µM (inactive) | GI50 [37]: > 100 µM (inactive) | GI50 [38]: > 100 µM (inactive) | GI50 [39]: > 100 µM (inactive) | GI50 [40]: > 100 µM (inactive) | GI50 [41]: > 100 µM (inactive) | GI50 [42]: > 100 µM (inactive) | GI50 [43]: > 100 µM (inactive) | GI50 [44]: > 100 µM (inactive) | GI50 [45]: > 100 µM (inactive) | GI50 [46]: > 100 µM (inactive) | GI50 [47]: > 100 µM (inactive) | GI50 [48]: > 100 µM | GI50 [49]: > 100 µM (inactive) | GI50 [50]: > 100 µM (inactive) | GI50 [51]: > 100 µM (inactive) | GI50 [52]: > 100 µM (inactive) | GI50 [53]: > 100 µM (inactive) | GI50 [54]: > 100 µM (inactive)

CC1(C)OP(=O)(O)CC1=O
GI50 [55]: > 100 µM (inactive) | GI50 [1]: > 100 µM (inactive) | GI50 [2]: > 100 µM (inactive) | GI50 [3]: > 100 µM (inactive) | GI50 [4]: > 100 µM (inactive) | GI50 [5]: > 100 µM (inactive) | GI50 [6]: > 100 µM (inactive) | GI50 [7]: > 100 µM (inactive) | GI50 [8]: > 100 µM (inactive) | GI50 [9]: > 100 µM (inactive) | GI50 [10]: > 100 µM (inactive) | GI50 [11]: > 100 µM (inactive) | GI50 [12]: > 100 µM (inactive) | GI50 [13]: > 100 µM (inactive) | GI50 [14]: > 100 µM (inactive) | GI50 [16]: > 100 µM (inactive) | GI50 [17]: > 100 µM (inactive) | GI50 [19]: > 100 µM (inactive) | GI50 [56]: > 100 µM (inactive) | GI50 [20]: > 100 µM (inactive) | GI50 [21]: > 100 µM (inactive) | GI50 [22]: > 100 µM (inactive) | GI50 [25]: > 100 µM (inactive) | GI50 [26]: > 100 µM (inactive) | GI50 [27]: > 100 µM (inactive) | GI50 [28]: > 100 µM (inactive) | GI50 [29]: > 100 µM (inactive) | GI50 [30]: > 100 µM (inactive) | GI50 [31]: > 100 µM (inactive) | GI50 [32]: > 100 µM (inactive) | GI50 [33]: > 100 µM (inactive) | GI50 [34]: > 100 µM (inactive) | GI50 [35]: > 100 µM (inactive) | GI50 [36]: > 100 µM (inactive) | GI50 [37]: > 100 µM (inactive) | GI50 [38]: > 100 µM (inactive) | GI50 [39]: > 100 µM (inactive) | GI50 [40]: > 100 µM (inactive) | GI50 [41]: > 100 µM (inactive) | GI50 [42]: > 100 µM (inactive) | GI50 [43]: > 100 µM (inactive) | GI50 [44]: > 100 µM (inactive) | GI50 [45]: > 100 µM (inactive) | GI50 [47]: > 100 µM (inactive) | GI50 [48]: > 100 µM | GI50 [49]: > 100 µM (inactive) | GI50 [50]: > 100 µM (inactive) | GI50 [51]: > 100 µM (inactive) | GI50 [52]: > 100 µM (inactive) | GI50 [53]: > 100 µM (inactive) | GI50 [54]: > 100 µM (inactive)

Source: ChEMBL document CHEMBL1201862, “PubChem BioAssay data set” (2004)
